Values quoted from earlier work, collected in patent publication US7579333B2 (Teva Pharmaceutical Industries Ltd., priority 2004, dated 2009).

Legend:
[1] = in vivo
[2] = test system: femoral bone mass density; settings: 1 year; 60 mg/day raloxifene, 10 mg/day alendronate; 331 patients
new vertebral fractures = settings: post-menopausal women with osteoporosis

| SMILES | pH at which best absorbed [1] | improvement in femoral bone mass density [2] [%] | decrease in incidence of new vertebral fractures (new vertebral fractures) |
| --- | --- | --- | --- |
| NCCCC(O)(P(=O)(O)O)P(=O)(O)O [alendronate] | ~6 | – | – |
| O=C(c1ccc(OCCN2CCCCC2)cc1)c1c(-c2ccc(O)cc2)sc2cc(O)ccc12 [raloxifene] | – | 1.7 | 30-50% |
